Assay results published in patent US20190284192A1, “NITROGENOUS MACROCYCLIC COMPOUND, PREPARATION METHOD THEREFOR, PHARMACEUTICAL COMPOSITION AND APPLICATION THEREOF” (LUOXIN PHARMACEUTICAL (SHANGHAI) CO., LTD., priority 2016, published 2019).
Like-named read-outs stand apart in the source and are kept apart here.

Columns and labels:
SU-DHL-6 cells = assay: Inhibitory effect on SU-DHL-6 cells (CellTiter-Glo); format: cell-based; conditions: Homo sapiens, read-out: SU-DHL-6
Protocol: Determinations of the inhibition of the compounds from the above embodiments against SU-DHL-6 cells, the detailed operation steps are as followed:
The 1st Day: Seed the Cells on the Plate
1. The cells were verified that they were in good conditions by observation under microscope;
2. The cells were transferred to a centrifuge tubes, after centrifuged at 1000 rpm for 5 min, the supernatant was discarded;
3. The complete substrate (1640+10% FBS) was added, then blown and patted into single cell suspension, counted by Vi-cell cytometer, the cell suspension was adjusted to desired cell density by the complete medium.
4. The cells were inoculated into a 96 well plate, the cell number was 12000/well at 100 μL per well, 100 μL complete medium was added into the black control;
5. 37° C., 5% CO2 culture overnight.
The 2nd Day: Addition of the Drugs
1. 1000× Compound Plate Preparation
1.1. The test compound was prepared into 10 mM working solution by using DMSO. Then the STS was prepared into 2 mM working solution by using DMSO.
1.2. In the round bottom 96 wells plate, the column 2 of row A to H was added into 60 μL 10 mM test compound (or STS) working solution, columns 3-11 were added into 40 μL DMSO, 20 μL drug solution was pipetted from the column 2 to the column 3, blown and patted for a homogeneous mixture; then 20 μL solution was pipetted from the column 3 to the column 4, blown and patted for a homogeneous mixture, sequently, the drug was diluted by 3 times, 10 concentrations in total. The columns 1 and 12 were supplemented with 40 μL of DMSO.
2. Intermediate plate preparation
A sterile V-bottom 96 deep well plate was used and in each well, 495 μL FBS-free PRMI 1640 medium was added, then 5 μL of the diluted compound (or DMSO) in the 1000× compound plate was pipetted into corresponding position of the V-bottom 96 well plate, blown and patted evenly.
3.1. The cell plate was taken out from the incubator and was observed under microscope. The diluted compound or DMSO in the intermediate plate was added into the cell plate, 11 μL each well.
3.2. The cell was continued to be cultured at 37° C., 5% CO2 for 72 hours.
The 5th Day: CellTiter-Glo Detection of the Cell Activity
1. The CellTiter-Glo buffer and the reaction substrate were taken out from the refrigerator, after balanced to r.t., the buffer was poured into a brown bottle containing the substrate, the bottle was upside down to have the substrate powder sufficientaly dissolved.
2. The cell was observed under microscope; the cell plate was balanced to r.t.
3. The prepared CellTiter-Glo was added into the 96 well plate, at 100 μL/well.
4. The cell plate was placed on a shaker for 10 min, followed by standing at r.t. for 10 min.
5. A white seal film was attached to the bottom of the well plate, and the chemiluminescence signal of each well was detected by the Enspire microplate detector.
6. XLfit was used for data processing. Inhibition rate %=(d-c)/(d-b)×100, while d is the signal value of the DMSO treated group, c is the signal value of the compound treated group, b is signal value of the blank control that only containing medium and DMSO without cells. The data was fitted using the f (x)205[fit=(A+((B−A)/(1+((C/x)^∧D))))] equation in the XLfit software.

MV-4-11 cells = assay: Inhibitory effect on MV-4-11 cells (CellTiter-Glo); format: cell-based; conditions: Homo sapiens, read-out: MV-4-11
BRD4 (BD2) = target: T1, BRD4 (BD2) (Homo sapiens, UniProt O60885); assay: BRD4 (BD2) bromodomain binding, HTRF; conditions: 2 h incubation at r.t.
T1 construct: Each member comprises two tandem bromodomains (BD1 and BD2) for recognizing the acetylated lysine residues

BRD4 (BD1) = target: T2, BRD4 (BD1) (Homo sapiens, UniProt O60885); assay: BRD4 (BD1) bromodomain binding, HTRF; conditions: 2 h incubation at r.t.
T2 construct: Each member comprises two tandem bromodomains (BD1 and BD2) for recognizing the acetylated lysine residues

[1] = Metabolic stability in human liver microsomes; format: in vitro ADME; conditions: human liver microsomes 0.5 mg/mL, NADPH, 37° C.; for CLint scaled at 1 µM: pH 7.4, read-out: HLM_CLint
Protocol: (§1) Determinations of the metabolic stability of the compound from the above embodiments, the detailed operation steps are as followed:
(§2) 1. Preparation of buffer C:
(§3) Buffer A: 1.0 L of 0.1 M potassium dihydrogen phosphate buffer (containing 1.0 mM EDTA);
(§4) Buffer B: 1.0 L of 0.1 M dipotassium hydrogen phosphate buffer (containing 1.0 mM EDTA);
(§5) Buffer C: 500 mL Buffer B was titrated with Buffer A to pH 7.4.
(§6) 2. 10 mM stock solution preparation:
(§7) 10 mM test compound: A certain amount of the test compound was weighed and dissolved in DMSO.
(§8) 10 mM control: 5.455 mg of ketanserin dissolved in 1 mL DMSO.
(§9) 3. Preparation of the drug solution:
(§10) 500 μM solution: 5 μL of 10 mM stock solution (see step 2) was added into 95 μL ACN;
(§11) 1.5 μM dosing solution (dissolved in liver microsome solution):
(§12) 18.75 μL of 20 mg/mL liver microsomes was added into 479.75 μL of Buffer C, then 1.5 μL of 500 μM solution was added and mixed gently by shaking.
(§13) 4. Preparation of 6 mM NADPH solution:
(§14) 15 mg NADPH was weighted, then added into 3 mL of buffer C to prepare a 6 mM NADPH solution.
(§15) 5. 30 µL of 1.5 μM dosing solution (see step 3) was added into the wells of the 96-well plate set at different time points (0 minutes, 5 minutes, 15 minutes, 30 minutes, 45 minutes), number of dulplicate sample is 2.
(§16) 6. Preparation of a 0 minutes sample: 135 μL ACN (with internal standard) was added to the 0 minutes well, followed by 15 µL of 6 mM NADPH solution.
(§17) 7. The 96-well plate containing 1.5 μM dosing solution and NADPH solution were preheated in a 37° C. water bath for 5 minutes.
(§18) 8. The 15 µL of 6 mM NADPH solution preheated was added into the wells set to 5 minutes, 15 minutes, 30 minutes, 45 minutes, then the reaction was initiated and started counting the time.
(§19) 10. The sample was vortexed for 10 min, and then centrifuged for 15 minutes on a centrifuge (Thermo Multifuge×3R) using 5594×g.
(§20) 11. 50 μL of the supernatant was taken from the centrifuged sample, transferred to a 96-well sample plate to which 100 μL of ultrapure water had already been added, mixed, and finally sent to LC-MS/MS for analysis.
(§21) Half time (T1/2)=0.693/K (K is the rate constant obtained by linear regression of the logarithm of the concentration as vertical coordinates and the culturing time as the abscissa)
(§22) 2. According to the equation formula bellow, Excel was used to plot the compound content versus reaction time, as well as half life calculation (min)
(§23) Y=(Y0−Plateau)×e^(−K*X)+Plateau
(§24) Y0 represents the compound content at 0 minutes; Y represents the compound content; X represents the time point; K represents degration rate constant of the compound; Plateau represents the lowest possible content of the compound (defined herein as 0).

[2] = Metabolic stability in mouse liver microsomes; format: in vitro ADME; conditions: mouse liver microsomes 0.5 mg/mL, NADPH, 37° C.; for CLint scaled at 1 µM: pH 7.4, read-out: MLM_CLint
Protocol: as §1, §2, §3, §4, §5, §6, §7, §8, §9, §10, §11, §12, §13, §14, §15, §16, §17, §18, §19, §20, §21, §22, §23, §24

[3] = MV4-11, 72 hours, CellTiter-Glo

Row | SMILES | IC50 (SU-DHL-6 cells; SU-DHL-6, 72 h) [nM] | IC50 (MV-4-11 cells; MV4-11, 72 h) [nM] | IC50 (BRD4 (BD2)) [nM] | IC50 (SU-DHL-6 cells; 72 hours, CellTiter-Glo) [nM] | IC50 (BRD4 (BD1)) [nM] | IC50 (MV-4-11 cells; [3]) [nM] | HLM_T1/2 [1] | CLint scaled at 1 µM [1] [mL/min/kg] | MLM_T1/2 [2] [min] | CLint scaled at 1 µM [2] [mL/min/kg]
1 | Cc1sc2c(c1C)C(c1ccc(Cl)cc1)=N[C@@H](CC(=O)OC(C)(C)C)c1nnc(C)n1-2 [(+)-JQ1, reference compound] | 198 | 248 | – | – | – | – | – | – | – | –
2 | Cn1cc2c(c1C(N)=O)CC(=O)N(c1ccc(F)cc1)c1ccc(CS(C)(=O)=O)cc1-2 [Compound 4001, 6-(4-fluorophenyl)-2-methyl-9-(methylsulfonemethyl)-5-oxo-2,4,5,6-tetrahydrobenzo[b]pyrrolo[3,4-d]azepin-3-carboxamide] | – | – | 25 | 2000 | 124 | 1440 | – | – | – | –
3 | Cn1cc2c(c1C(N)=O)CCN(c1ccc(F)cc1)c1ccc(CS(C)(=O)=O)cc1-2 [Compound 4002, 6-(4-fluorophenyl)-2-methyl-9-(methylsulfonylmethyl)-2,4,5,6-tetrahydrobenzo[b]pyrrolo[3,4-d]azepin-3-carboxamide] | – | – | 47 | 1930 | 26 | 1120 | 38.19 min | 45.5 | 23.42 | 233
4 | Cn1cc2c(c1C#N)CC(=O)N(c1ccc(F)cc1)c1ccc(CS(C)(=O)=O)cc1-2 [Compound 4003, 6-(4-Fluorophenyl)-2-methyl-9-(methylsulfonemethyl)-5-oxo-2,4,5,6-tetrahydrobenzo[b]pyrrolo[3,4-d]azepin-3-nitrile] | – | – | 16 | 2040 | 148 | 1550 | – | – | – | –
5 | Cn1cc2c(c1C(N)=O)CCN(c1ccc(F)cc1)c1ncc(F)cc1-2 [Compound 4005, 9-fluoro-6-(4-fluorophenyl)-2-methyl-2,4,5,6-tetrahydropyrido[2,3-b]pyrrolo[3,4-d]azepin-3-carboxamide] | – | – | 550 | > 10000 | 163 | > 10000 | – | – | – | –
6 | Cn1cc2c(cc1=O)CN=C(c1ccc(F)cc1)c1ccc(CS(C)(=O)=O)cc1-2 [Compound 4007, 7-(4-Fluorophenyl)-2-methyl-10-(methylsulfonemethyl)-2H-benzo[c]pyrido[3,4-e]azepin-3(5H)-ketone] | – | – | 7 | 253 | 6 | 118 | ∞ | – | 815.54 | 6.69
7 | CCS(=O)(=O)Cc1ccc2c(c1)-c1cn(C)c(=O)cc1CN=C2c1ccc(Cl)cc1 [Compound 4011, 7-(4-chlorophenyl)-10-((ethylsulfone)methyl)-2-methyl-2,5-dihydro-3H-benzo[c]pyrido[3,4-e]Azazale-3-ketone] | – | – | 4 | 59 | 4 | 65 | 1127.52 min | 1.54 | 1056.88 | 5.16
